# Experimental data published in paper PMC6539868, “Syntheses and Biological Studies of Cu(II) Complexes Bearing Bis(pyrazol-1-yl)- and Bis(triazol-1-yl)-acetato Heteroscorpionate Ligands” (Molecules, 2019).
# Like-named read-outs stand apart in the source and are kept apart here.
# Key:
# [1] = test system: panel of human cancer cell lines derived from solid tumors; assay: MTT cytotoxicity, whole panel of human cancer cell lines; assay type: cell-based; conditions: mean over the cell lines of Table 2, 72 h
# Procedure: (§1) The growth inhibitory effect towards 2D tumor cell lines was evaluated by means of MTT assay as previously described. IC50 values were calculated by four parameters logistic (4-PL) model. All the values are the means ± SD of not less than five measurements starting from three different cell cultures.
# (§2) The in vitro antitumor activity of copper(II) complexes 1–3 and the uncoordinated ligands [HC(COOH)(pz^Me2)2], [HC(COOH)(pz)2] and [HC(COOH)(tz)2] was evaluated against a panel of human cancer cell lines derived from solid tumors. Adherent cell lines representative of cervical (A431), pancreatic (BxPC3) colon (HCT-15), breast (MCF-7), lung (A549), and ovarian (2008) cancers, differently sensitive to cisplatin, were exposed to the indicated compounds for 72 h.
# (§3) HCT-15 colon cancer cells are notoriously poorly chemosensitive to cisplatin. […] As for cisplatin, the clinical effectiveness of OXP is seriously hampered by the cancer cell resistance and, at present, few other drug regimens are available for patients with OXP-refractory colorectal cancers. […] The RF values (calculated by dividing IC50 for resistant cells by those for sensitive ones) were about 10 times lower than that of OXP, excluding the occurrence of cross-resistance phenomena.
# A549 = assay: MTT cytotoxicity assay, 2D monolayer; assay type: cell-based, human; conditions: 72 h, MTT test, lung carcinoma, read-out: IC50 (µM) ± S.D. A549
# Source text: (§4) Human lung (A549), colon (HCT-15 and LoVo) and breast (MCF-7) carcinoma cell lines were obtained from American Type Culture Collection (ATCC, Rockville, MD, USA). Human pancreatic BxPC3 carcinoma cells were obtained from European Collection of Cell Culture (ECACC, Salisbury, UK). Human ovarian 2008 cancer cells were kindly provided by Prof. G. Marverti (Dept. of Biomedical Science of Modena University, Modena, Italy). Human squamous cervical A431 carcinoma cells were kindly provided by Prof. F. Zunino (Division of Experimental Oncology B, Istituto Nazionale dei Tumori, Milan, Italy). The LoVo-OXP cells were obtained as previously described. Cell lines were maintained in culture in the logarithmic phase at 37 °C in a 5% carbon dioxide atmosphere using the following media added of 10% fetal calf serum (Euroclone, Milan, Italy), antibiotics (50 units/mL penicillin and 50 μg/mL streptomycin), and 2 mM L-glutamine: (i) RPMI-1640 medium (Euroclone) for HCT-15, A431, MCF-7, BxPC3 and 2008 cells; (ii) F-12 HAM’S (Sigma Chemical Co.) for A549, LoVo and LoVo-OXP cells.
# as §1, §2
# HCT-15 = assay: MTT cytotoxicity assay, 2D monolayer; assay type: cell-based, human; conditions: 72 h, MTT test, colon carcinoma, read-out: IC50 (µM) ± S.D. HCT-15
# Source text: as §4, §1, §2
# BxPC3 = assay: MTT cytotoxicity assay, 2D monolayer; assay type: cell-based, human; conditions: 72 h, MTT test, pancreatic carcinoma; read-out: IC50 (µM) ± S.D. BxPC3
# Source text: as §4, §1, §2
# A431 = assay: MTT cytotoxicity assay, 2D monolayer; assay type: cell-based, human; conditions: 72 h, MTT test, cervical carcinoma; read-out: IC50 (µM) ± S.D. A431
# Source text: as §4, §1, §2
# 2008 = assay: MTT cytotoxicity assay, 2D monolayer; assay type: cell-based, human; conditions: 72 h, MTT test, ovarian cancer, read-out: IC50 (µM) ± S.D. 2008
# Source text: as §4, §1, §2
# MCF-7 = assay: MTT cytotoxicity assay, 2D monolayer; assay type: cell-based, human; conditions: 72 h, MTT test, breast carcinoma, read-out: IC50 (µM) ± S.D. MCF-7
# Source text: as §4, §1, §2
# [2] = test system: HCT-15 colon cancer cell spheroids; assay: Acid phosphatase (APH) assay in 3D spheroids; assay type: cell-based, human; conditions: 72 h, APH test, read-out: IC50 (µM) ± S.D. HCT-15 spheroids
# Procedure: Spheroid cultures were obtained by seeding 2.5 × 10^3 HCT-15 cells/well in round bottom non-tissue culture treated 96 well-plate (Greiner Bio-one, Kremsmünster, Austria) in phenol red free RPMI-1640 medium (Sigma Chemical Co.), containing 10% FCS and supplemented with 20% methyl cellulose stock solution.
# An APH modified assay was used for determining cell viability in 3D spheroids, as previously described. IC50 values were calculated with a four parameter logistic (4-PL) model. All the values are the means ± SD of not less than four independent experiments.
# The in vitro antitumor efficacy of the newly developed compounds was also tested on 3D colon cancer cell culture models. Differently from 2D monolayer culture, 3D spheroid cell culture systems comprise cancer cells in various cell growth stages. Consequently, the multicellular cancer spheroid model is recognized to better reflect the tumor mass in vivo regarding drug permeation, cell interactions, gene expression, hypoxia and nutrient gradients with respect to monolayer cell cultures. Table 4 summarizes the IC50 values obtained after treatment of 3D cell spheroids of human HCT-15 colon cancer cells with copper(II) compounds as well as with cisplatin, as reference drug. In accordance with 2D chemosensitivity assays, complex 3 was scarcely effective, whereas complex 1 was as effective as cisplatin. […] We hypothesize that in this non-proliferative and very resistant tumor model the higher lipophilicity of 1, due to the presence of methyl substituents on the pyrazolyl rings, might be responsible for the enhanced compound penetration in the core area of spheroids.
# LoVo-OXP = assay: MTT cytotoxicity assay, cross-resistance profile; assay type: cell-based, human; conditions: for IC50: 72 h, MTT test, oxaliplatin-resistant colon cancer cells, read-out: IC50 (µM) ± S.D. LoVo-OXP; for RF (resistance factor): RF = IC50 (resistant cells)/IC50 (wild-type cells)
# Source text: as §4, §1, §3
# LoVo = assay: MTT cytotoxicity assay, cross-resistance profile; assay type: cell-based, human; conditions: 72 h, MTT test, oxaliplatin-sensitive colon cancer cells; read-out: IC50 (µM) ± S.D. LoVo
# Source text: as §4, §1, §3
# Stability to air = assay type: physicochemical; conditions: also as solutions
# [3] = test system: 26S proteasome, chymotrypsin-like (CT-L) activity; assay: Proteasome inhibition, chymotrypsin-like (CT-L) activity; assay type: biochemical; conditions: isolated 26S rabbit proteasomes, 15 μM, 60 min
# Procedure: (§5) The purified rabbit 26S proteasome (Sigma Aldrich) was incubated for 60 min at 37 °C in assay buffer (50 mM Tris-HCl, pH 7.5, 250 mM sucrose, 5 mM MgCl2, 1 mM DTT, and 0.5 mM EDTA), in the presence of 15 µM of 1–3 or 10 µM Lactacystin. Afterwards, fluorogenic peptides were added and substrate hydrolysis was measured after 30 min by monitoring spectrofluorometrically the release of AMC (excitation at 370 nm, emission at 460 nm).
# (§6) The ability of copper complexes to hamper the functioning of each individual proteasome active site, chymotrypsin-like (CT-L), trypsin-like (T-L), and caspase-like (C-L) activities was assessed in isolated 26S rabbit proteasomes after incubation with 15 μM of tested compounds. Lactacystin, an irreversible nonpeptidomimetic proteasome inhibitor, was used as a positive control. […] Conversely, no significant effects were recorded towards the T-L site. Even if the chymotrypsin-like sites are the major drug targets in cancer, it has been recently observed that co-targeting trypsin-like site increased cytotoxicity of copper complexes acting as proteasome inhibitors.
# [4] = test system: 26S proteasome, caspase-like (C-L) activity; assay: Proteasome inhibition, caspase-like (C-L) activity; assay type: biochemical; conditions: isolated 26S rabbit proteasomes, 15 μM, 60 min
# Procedure: as §5, §6
# Solubility = assay type: physicochemical
# LoVo cells = assay: Cellular uptake (intracellular copper by GF-AAS); assay type: cell-based, human; conditions: 24 h, 2 μM
# Procedure: LoVo cells (2.5 × 10^6) were seeded in 75 cm^2 flasks in growth medium (20 mL). After overnight incubation, the medium was replaced, and the cells were treated with tested compounds for 24 h. Cell monolayers were then processed and mineralized as previously described. The sample was analyzed for copper by using a Varian AA Duo graphite furnace atomic absorption spectrometer (Varian, Palo Alto, CA, USA) at the wavelength of 324 nm. The calibration curve was obtained using known concentrations of standard solutions purchased from Sigma Chemical Co.
# With the purpose of underling a possible correlation between cellular uptake efficiency and cytotoxicity, LoVo cells were treated for 24 h with equimolar concentrations (2 μM) of copper(II) complexes and the intracellular copper amount was quantified by means of Graphite Furnace Atomic Absorption Spectrometry (GF-AAS) analysis. […] In fact, the intracellular copper content detected in LoVo cells follows the same cytotoxicity trend 1 > 2 > 3.
smiles,measurement,setting,value
"N.N.[Cl][Pt][Cl] [Cisplatin, cisplatin, reference compound]",IC50,[1],7.1 µM
same,IC50,A549,7.5 ± 1.2 µM
same,IC50,HCT-15,15.3 ± 2.2 µM
same,IC50,BxPC3,7.3 ± 1.2 µM
same,IC50,A431,1.7 ± 0.5 µM
same,IC50,2008,2.2 ± 1 µM
same,IC50,MCF-7,8.8 ± 1.4 µM
same,IC50,[2],65.9 ± 3.85 µM
"O=C1[O][Pt]2([NH][C@@H]3CCCC[C@H]3[NH]2)[O]C1=O [Oxaliplatin, oxaliplatin, reference compound]",IC50,LoVo-OXP,15.2 ± 2.2 µM
same,RF (resistance factor),LoVo-OXP; LoVo-OXP/LoVo,10.9
same,IC50,LoVo,1.4 ± 0.7 µM
"O=C(O)C(n1cccn1)n1cccn1 [[HC(COOH)(pz)2], bis(pyrazol-1-yl)acetic acid, reference compound]",IC50,"A549; Homo sapiens, A549",> 100 µM
same,IC50,"HCT-15; Homo sapiens, HCT-15",> 100 µM
same,IC50,2008; Homo sapiens,> 100 µM
same,IC50,"MCF-7; Homo sapiens, MCF7",> 100 µM
"Cc1cc(C)n(C(C(=O)O)n2nc(C)cc2C)n1 [[HC(COOH)(pz^Me2)2], bis(3,5-dimethylpyrazol-1-yl)acetic acid, reference compound]",IC50,"A549; Homo sapiens, A549",> 100 µM
same,IC50,"HCT-15; Homo sapiens, HCT-15",> 100 µM
same,IC50,2008; Homo sapiens,> 100 µM
same,IC50,"MCF-7; Homo sapiens, MCF7",> 100 µM
"O=C(O)C(n1cncn1)n1cncn1 [[HC(COOH)(tz)2], bis(1,2,4-triazol-1-yl)acetic acid, reference compound]",IC50,"A549; Homo sapiens, A549",> 100 µM
same,IC50,"HCT-15; Homo sapiens, HCT-15",> 100 µM
same,IC50,2008; Homo sapiens,> 100 µM
same,IC50,"MCF-7; Homo sapiens, MCF7",> 100 µM
"O=C(O)C(n1cccn1)n1cccn1.O=C(O)C(n1cccn1)n1cccn1.[Cu+2].[O-][Cl+3]([O-])([O-])[O-].[O-][Cl+3]([O-])([O-])[O-] [compound 2, [HC(COOH)(pz)2]2Cu(ClO4)2]",air stability,Stability to air,air stable even as solutions
same,IC50,[1],8.9 µM
same,IC50,A549,5.5 ± 0.2 µM
same,IC50,HCT-15,9.3 ± 2.7 µM
same,IC50,BxPC3,7.5 ± 1.2 µM
same,IC50,A431,12.7 ± 1.2 µM
same,IC50,2008,7.9 ± 1.4 µM
same,IC50,MCF-7,10.2 ± 2.5 µM
same,effect on CT-L proteasome activity,[3],"able to affect CT-L and C-L activities, even if to a lesser extent than lactacystin"
same,IC50,LoVo-OXP,4.9 ± 0.6 µM
same,RF times lower than that of OXP,LoVo-OXP; LoVo-OXP/LoVo,about 10 times
same,RF (resistance factor),LoVo-OXP; LoVo-OXP/LoVo,1.2
same,IC50,LoVo,4 ± 0.5 µM
same,effect on C-L proteasome activity,[4],"able to affect CT-L and C-L activities, even if to a lesser extent than lactacystin"
same,"solubility in methanol, DMSO and acetonitrile","Solubility; methanol, DMSO, acetonitrile",soluble
same,solubility in water,Solubility; water,soluble
same,IC50,[2],107.8 ± 1 µM
"CO.O=C(O)C(n1cncn1)n1cncn1.O=C(O)C(n1cncn1)n1cncn1.[Cu+2].[O-][Cl+3]([O-])([O-])[O-].[O-][Cl+3]([O-])([O-])[O-] [compound 3, [HC(COOH)(tz)2]2Cu(ClO4)2·CH3OH]",cellular uptake efficiency (intracellular copper amount),LoVo cells,lowest cellular uptake efficiency
same,air stability,Stability to air,air stable even as solutions
same,IC50,A549,24.5 ± 1.9 µM
same,IC50,HCT-15,59.5 ± 2.7 µM
same,IC50,BxPC3,18.5 ± 4.4 µM
same,IC50,A431,15.9 ± 5.8 µM
same,IC50,2008,69.3 ± 4.7 µM
same,IC50,MCF-7,39.6 ± 4.6 µM
same,effect on CT-L proteasome activity,[3],"able to affect CT-L and C-L activities, even if to a lesser extent than lactacystin"
same,IC50,LoVo-OXP,32.5 ± 1 µM
same,RF (resistance factor),LoVo-OXP; LoVo-OXP/LoVo,2.1
same,IC50,LoVo,15.3 ± 1 µM
same,effect on C-L proteasome activity,[4],"able to affect CT-L and C-L activities, even if to a lesser extent than lactacystin"
same,solubility in DMSO,Solubility; DMSO,soluble
same,IC50,[2],> 100 µM
